Measurements published in PMC10788923 (Journal of Medicinal Chemistry, 2023).

What was measured:
[1] = Mouse liver microsome stability; assay type: in vitro ADME; details: 0.5 mg protein/mL, 37 °C
[2] = In vivo pharmacokinetic study, oral dosing; set-up: species or system male C57BL/6J mice
[3] = mouse, liver microsomes, read-out: MLM t1/2
[4] = male, C57BL/6J, mouse plasma, PO 10 mg/kg, second number = SD

half-life at 1 h, 1 µM [1, 3] [min]	half-life ([2]; male, C57BL/6J, plasma, mouse, oral dosing 10 mg/kg) [min]	Cmax at 24 h ([2]; male, C57BL/6J, mouse plasma, PO 10 mg/kg) [nM]	Tmax at 24 h [2, 4] [min]	half-life at 24 h [2, 4] [min]	MRT inf at 24 h ([2]; male, C57BL/6J, mouse plasma, PO 10 mg/kg, second number = SD, read-out: MRT0-inf) [min]	oral bioavailability (in words) ([2]; mouse, oral dosing 10 mg/kg)	MLM t1/2 ([1]; mouse liver microsomes, 1 μM) [min]	half-life at 1 μM [1, 3] [min]	Structure (SMILES)
11.7	–	–	–	–	–	–	–	–	O=c1cccc(CCOc2ccc(Cl)cc2)[nH]1 [Compound 60, 6-(2-(4-Chlorophenoxy)ethyl)pyridin-2-ol]
7.2	–	–	–	–	–	–	–	–	[O-][n+]1cccc(CCOc2ccc(Cl)c(C3CC3)c2)c1 [Compound 41, 3-(2-(4-Chloro-3-cyclopropylphenoxy)ethyl)pyridine 1-oxide]
–	53	310	25	53.3	81	orally bioavailable	104.7	105	[O-][n+]1cc(O)cc(CCCc2ccc(Cl)c(C(F)(F)F)c2)c1 [Compound 69, 3-(3-(4-Chloro-3-(trifluoromethyl)phenyl)propyl)-5-hydroxypyridine 1-oxide]
